{
  "source": "patent EP0622459A1",
  "about": "“Fused proteins for preparing vasoactive intestinal polypeptide analogs, method of preparing same and recombinant plasmids and transformant microorganisms” (SANWA KAGAKU KENKYUSHO CO., LTD., priority 1993, dated 1994)",
  "origin": "cited, not measured here",
  "settings": "prior-art analogs, result in words",
  "note": "Ends that are not written are not given here.",
  "data": [
    {"substance": "Leu¹⁷-VIP-OH: genetically engineered VIP analog of the prior art (JP-A-1-296996 and JP-A-3-280893) (HSDAVFTDNYTRLRKQLAVKKYLNSILN-OH; UniProt P01282 125-152, looked up, variant M17L)", "values": [
      {"measurement": "biological activity compared with VIP", "result": "only comparable to naturally occurring VIP"}
    ]}
  ]
}
